According to PMC11181336, “Discovery of ITI-333, a Novel Orally Bioavailable Molecule Targeting Multiple Receptors for the Treatment of Pain and Other Disorders” (Journal of Medicinal Chemistry, 2024):
Where two headings read alike, the source gives them in different places.

Tests used:
[1] = tested on: male CD-1 mice; details: mouse, in vivo
[2] = tested on: male C57Bl/6 mice; experiment: Mouse formalin paw assay for inflammatory pain; assay type: in vivo; details: SC administration 30 min prior; morphine 5 mg/kg; compound 5 0.3, 1 or 3 mg/kg
[3] = biological target: human recombinant dopamine D1 receptor (Homo sapiens, UniProt P21728); experiment: Dopamine D1 receptor binding, [3H]SCH 23390 displacement; details: for inhibition at 0.1 µM: read-out: D1 % inhibition
[4] = biological target: T1, human recombinant 5-HT transporter (SERT) (Homo sapiens, UniProt P31645); experiment: biochemical; assay type: binding; details: read-out: SERT % inhibition
T1 construct: host or cells: CHO-S / SERT (h), cell membrane homogenates

[5] = biological target: T2, human full-length recombinant serotonin 5-HT2A receptors (Homo sapiens, UniProt P28223); experiment: biochemical; assay type: binding; details: read-out: 5-HT2A % inhibition
T2 construct: human full-length recombinant serotonin 5-HT2A receptors expressed in HEK-293E cells

[6] = biological target: human recombinant dopamine D2 short receptor (Homo sapiens, UniProt P14416); experiment: Dopamine D2 receptor binding, [3H]7-OH-DPAT displacement; details: read-out: D2 % inhibition
[7] = inhibition at 100 nM, NI = no inhibition

Chain of human recombinant dopamine D1 receptor (P21728 whole entry): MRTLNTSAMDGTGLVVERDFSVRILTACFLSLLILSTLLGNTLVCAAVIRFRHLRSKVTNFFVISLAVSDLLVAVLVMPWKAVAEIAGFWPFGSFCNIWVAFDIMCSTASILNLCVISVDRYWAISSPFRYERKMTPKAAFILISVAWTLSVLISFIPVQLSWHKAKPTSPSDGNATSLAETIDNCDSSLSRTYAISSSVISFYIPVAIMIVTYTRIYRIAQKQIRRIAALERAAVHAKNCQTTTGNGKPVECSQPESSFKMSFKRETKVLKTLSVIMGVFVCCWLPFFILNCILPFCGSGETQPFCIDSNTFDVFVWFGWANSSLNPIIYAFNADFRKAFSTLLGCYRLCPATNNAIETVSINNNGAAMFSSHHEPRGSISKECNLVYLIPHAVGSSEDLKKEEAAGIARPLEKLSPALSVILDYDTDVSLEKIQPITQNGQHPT
T2 sequence (P28223 whole entry): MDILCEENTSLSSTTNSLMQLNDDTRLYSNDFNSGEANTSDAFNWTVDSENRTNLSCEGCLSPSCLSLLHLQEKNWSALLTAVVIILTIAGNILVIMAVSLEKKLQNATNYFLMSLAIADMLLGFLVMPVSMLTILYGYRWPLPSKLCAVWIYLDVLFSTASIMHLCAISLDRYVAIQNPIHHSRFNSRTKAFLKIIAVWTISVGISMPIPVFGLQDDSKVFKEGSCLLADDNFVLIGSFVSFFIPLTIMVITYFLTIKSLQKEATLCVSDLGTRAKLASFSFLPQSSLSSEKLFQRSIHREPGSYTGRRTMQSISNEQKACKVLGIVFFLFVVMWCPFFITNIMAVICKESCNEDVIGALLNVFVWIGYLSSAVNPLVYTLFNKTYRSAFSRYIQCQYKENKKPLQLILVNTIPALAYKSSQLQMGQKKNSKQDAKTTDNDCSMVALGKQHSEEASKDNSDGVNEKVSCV
Chain of human recombinant dopamine D2 short receptor (P14416 1-414 isoform P14416-2): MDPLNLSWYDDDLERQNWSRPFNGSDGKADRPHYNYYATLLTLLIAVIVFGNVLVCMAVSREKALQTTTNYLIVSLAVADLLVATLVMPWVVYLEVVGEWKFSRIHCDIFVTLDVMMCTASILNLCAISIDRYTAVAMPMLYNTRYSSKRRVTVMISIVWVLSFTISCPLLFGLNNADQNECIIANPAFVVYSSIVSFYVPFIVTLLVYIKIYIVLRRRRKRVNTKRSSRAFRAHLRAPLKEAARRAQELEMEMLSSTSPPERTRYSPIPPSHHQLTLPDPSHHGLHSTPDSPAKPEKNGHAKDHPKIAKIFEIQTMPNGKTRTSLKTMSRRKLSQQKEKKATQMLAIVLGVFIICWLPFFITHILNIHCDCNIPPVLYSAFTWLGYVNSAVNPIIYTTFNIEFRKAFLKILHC
T1 sequence (P31645 whole entry): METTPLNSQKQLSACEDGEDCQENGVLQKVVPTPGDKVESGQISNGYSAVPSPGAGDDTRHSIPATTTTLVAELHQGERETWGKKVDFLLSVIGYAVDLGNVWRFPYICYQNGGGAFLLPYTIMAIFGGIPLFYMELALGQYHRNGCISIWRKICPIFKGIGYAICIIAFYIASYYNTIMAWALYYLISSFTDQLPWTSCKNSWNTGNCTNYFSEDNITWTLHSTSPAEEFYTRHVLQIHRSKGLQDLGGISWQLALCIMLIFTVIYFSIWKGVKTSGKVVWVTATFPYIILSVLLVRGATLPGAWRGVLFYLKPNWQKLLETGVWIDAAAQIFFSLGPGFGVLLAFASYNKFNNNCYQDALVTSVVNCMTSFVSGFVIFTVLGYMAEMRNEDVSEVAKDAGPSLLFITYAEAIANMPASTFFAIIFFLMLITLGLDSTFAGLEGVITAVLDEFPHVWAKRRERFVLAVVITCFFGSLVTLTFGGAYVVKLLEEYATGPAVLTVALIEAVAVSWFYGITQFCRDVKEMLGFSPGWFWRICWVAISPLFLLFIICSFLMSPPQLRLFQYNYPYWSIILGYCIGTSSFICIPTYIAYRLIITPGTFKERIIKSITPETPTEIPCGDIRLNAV

## CN1CC[C@]23c4c5ccc(O)c4O[C@H]2[C@@H](O)C=C[C@H]3[C@H]1C5 [morphine]
[1]
  analgesic effect after pretreatment with naloxone: attenuated
  latency to tail flick compared to the vehicle: significantly increased
[2]
  licking response to formalin injection: significantly suppressed

## O=C1CN2c3c(cccc3[C@@H]3CN(CCCOc4ccc(F)cc4)CC[C@@H]32)N1 [compound 5, (6bR,10aS)-8-(3-(4-Fluorophenoxy)propyl)-6b,7,8,9,10,10a-hexahydro-1H-pyrido[3′,4′:4,5]pyrrolo[1,2,3-de]quinoxalin-2(3H)-one]
[3]
  D1(Ki or (% Inhibition)): % inhibition: 50 (44%)
  inhibition at 0.1 µM: 44%
[2]
  licking response to formalin injection: dose-dependently reduced

## Cc1cc(F)cc(C)c1OCCCN1CC[C@H]2[C@@H](C1)c1cccc3c1N2CC(=O)N3 [compound 43, (6bR,10aS)-8-(3-(4-Fluoro-2,6-dimethylphenoxy)propyl)-6b,7,8,9,10,10a-hexahydro-1H-pyrido[3′,4′:4,5]-pyrrolo[1,2,3-de]quinoxalin-2(3H)-one]
[4]
  inhibition at 0.2 µM: 34%
[5]
  inhibition at 0.1 µM: 40%
[6]
  inhibition at 0.1 µM: < 0%
[3]
  inhibition at 0.1 µM: < 0%

## Cc1ccc(OCCCN2CC[C@H]3[C@@H](C2)c2cccc4c2N3CC(=O)N4)cc1 [compound 32, (6bR,10aS)-8-(3-(p-Tolyloxy)propyl)-6b,7,8,9,10,10a-hexahydro-1H-pyrido[3′,4′:4,5]pyrrolo[1,2,3-de]-quinoxalin-2(3H)-one]
[4]
  inhibition at 0.1 µM: 9.6%
[5]
  inhibition at 0.1 µM: 62%
[6]; [7]
  inhibition at 0.1 µM: 20%
[3]; [7]
  inhibition at 0.1 µM: 13%
